Source: patent US20220023249A1, “Carotenoid Formulation For Increased Bioavailability” (Industrial Organica, SA de CV, priority 2020, published 2022)
Where two headings read alike, the source gives them in different places.

How the values were obtained:
[1] = cited from earlier work
[2] = set-up: species or system human; conditions: in vivo
Excerpt: COAST was a 6-month, double-blind, block-randomized placebo-controlled study involving 81 healthy participants between 18 and 65 years old. Participant recruitment and assessment commenced on December 2017 and ended on December 2018. Recruitment was achieved through local media and advertisement at the Waterford Institute of Technology, local fitness centers, and with employees of an industry based in Waterford, Ireland. […] Every participant enrolled in the study provided written informed consent prior to commencement. The study protocol was approved May 2017 by the Research Ethics Committees of the Waterford Institute of Technology (Waterford, Ireland) and the HSE, South Eastern Area (University Hospital Waterford, Waterford, Ireland). Industrial Orgánica, S.A. de C.V., the manufacturer of the nutritional supplements, had no role in the design of the study, the collection and analysis of the data, or the preparation of manuscripts. All vouch for the accuracy of the data and the fidelity of the study to the protocol. COAST was a five-arm intervention study, where participants were randomly allocated, with equal probability and separately for men and women, to one of four active intervention groups or to a placebo group. Label claims of the nutritional content in the intervention supplements were as follows: Group 1, L (10 mg)+MZ (10 mg)+Z (2 mg) provided in one capsule; Group 2, L (10 mg)+MZ (10 mg)+Z (2 mg) provided in two capsules; […] Therefore, it was decided to present the dosages of the formulations as stated by label claim. […] Serum carotenoid concentrations were analyzed as the total concentrations (μmol/L) for each of the carotenoids in serum. […] Outcome variables were recorded at baseline and at 6 months. […] Calibration lines used, as well as lower and upper limits of quantification (LLOQ and ULOQ respectively), are as previously performed. Serum carotenoid analysis was completed in sixteen independent batches, with a maximum intra-day precision of 7.28%, measured as RSD, and an inter-day precision of 3.16% (RSD). […]

[3] = hens; cited from earlier work

Row | SMILES | increase of serum L ([1]; AREDS 2 study) | increase of serum L ([1]; CREST AMD study) | serum response compared to free carotenoid as crystals [2] | serum response compared to group supplemented with free L ([1]; previous clinical trial) | MPOD improvements compared to free L supplementation ([1]; previous report) | deposition of carotenoid in egg yolk compared to free form [3]
1 | CC1=C[C@H](O)CC(C)(C)[C@H]1/C=C/C(C)=C/C=C/C(C)=C/C=C/C=C(C)/C=C/C=C(C)/C=C/C1=C(C)C[C@@H](O)CC1(C)C [L, (3R,3′R,6R)-lutein, reference compound] | 200% | 304% |  |  |  | 
2 | CC(=O)O[C@@H]1CC(C)=C(/C=C/C(C)=C/C=C/C(C)=C/C=C/C=C(C)/C=C/C=C(C)/C=C/[C@H]2C(C)=C[C@H](OC(C)=O)CC2(C)C)C(C)(C)C1 [Ld, (3R,3′R,6R)-lutein diacetate] |  |  | remained similar | slightly higher and not statistically different | superior and significant response | similar
3 | CC(=O)OC1CC(C)=C(C=CC(C)=CC=CC(C)=CC=CC=C(C)C=CC=C(C)C=CC2=C(C)CC(OC(C)=O)CC2(C)C)C(C)(C)C1 (stereo not drawn) [MZd, meso-zeaxanthin diacetate] |  |  | significantly greater |  |  | greater capability
4 | CC(=O)O[C@@H]1CC(C)=C(/C=C/C(C)=C/C=C/C(C)=C/C=C/C=C(C)/C=C/C=C(C)/C=C/C2=C(C)C[C@@H](OC(C)=O)CC2(C)C)C(C)(C)C1 [Zd, (3R,3′R)-zeaxanthin diacetate] |  |  | significantly greater |  |  | greater capability
